Where two headings read alike, the source gives them in different places.
How the values were obtained:
Type in all cases: in vivo
[1] = test system: Resistant Plutella xylostella; assay: Resistant Plutella xylostella Controlling Activity Test; settings: for Mortality (%): 0.2 ppm, 2nd instar, resistant, radish leaves dipped 10 s, 72 h (three days); for mortality at 0.2 ppm / mortality at 1 ppm / mortality at 5 ppm: Plutella xylostella, in Raphanus sativus, 72 h
Method: Resistant Plutella xylostella Controlling Activity Test:
Leaf dipping method was used, the appropriate amount of radish leaves were dipped into the drug for 10 s, placed in a plastic petri dish padded with filter paper and dried naturally, each dish was connected with 10 heads of 2nd instar small cabbage moths, placed in the observation room at 24° C. and light (16/8 h). 72 h later observation was made, and the body of the insect was touched lightly with a brush and no reaction was regarded as a dead insect, which was repeated for three times, and a blank control was also set up without any additional agent.

[2] = test system: Tetranychus cinnabarinus; assay: Tetranychus cinnabarinus Controlling Activity Test; settings: 72 h; for mortality at 1.6 ppm: read-out: mortality against Tetranychus cinnabarinus; for mortality at 1.56 ppm / mortality at 3.125 ppm / mortality at 6.25 ppm / mortality at 12.5 ppm: in Phaseolus vulgaris
Method: Tetranychus cinnabarinus Controlling Activity Test:
The test compound was dissolved in acetone and diluted to the desired concentration with 0.1 wt % aqueous tween 80, the acetone content not exceeding 5 wt %.
One real leaf was removed from kidney bean seedlings grown to two real leaves, inoculating Tetranychus cinnabarinus, investigating the base number, performing whole plant spraying treatment by using a handheld sprayer, repeating the treatment for 3 times (the application amount of the preparation is about 0.5 g), observing in a constant-temperature observation room after the treatment, investigating the number of live mites after 72 hours, and calculating the mortality. The number of Tetranychus cinnabarinus inoculated in each time is 35-100.
Mortality%=(number of inoculated insects−number of live insects after drug administration)÷number of inoculated insects×100%

[3] = test system: Frankliniella occidentalis larvae; assay: Frankliniella occidentalis Larva Controlling Activity Test; settings: 72 h; for mortality at 3.25 ppm: read-out: mortality for Frankliniella occidentalis larvae; for mortality at 1.56 ppm / mortality at 3.125 ppm / mortality at 6.25 ppm: in Brassica oleracea
Method: Frankliniella occidentalis Larva Controlling Activity Test:
The test compound is dissolved in acetone and diluted to the desired concentration. 0.5 mL of the prepared acetone medicinal liquid is added into a glass tube (the inner diameter is 1 cm, the length is 10 cm), and the glass tube is repeatedly rolled on a flat table until the acetone solution is completely volatilized. Soaking cabbage leaves in the liquid medicine with the corresponding concentration for 15 s, drying, placing in a glass tube, inoculating 10-20 heads of Frankliniella occidentalis larvae in the glass tube, repeating the treatment for three times, observing in a constant-temperature observation room after the treatment, investigating the number of live insects after 72 hours, and calculating the mortality.

[4] = test system: Spodoptera frugiperda; assay: Spodoptera frugiperda Indoor Toxicity Determination Test; settings: in Zea mays, read-out: mortality against Spodoptera frugiperda
Description: Spodoptera frugiperda Indoor Toxicity Determination Test
Test targets: Spodoptera frugiperda, 3rd instar larvae, a sensitive strain raised indoors.
The test method comprises the following steps: firstly, selecting fresh corn leaves cultivated in a greenhouse, cutting the fresh corn leaves into 5 cm-long leaf segments, sequentially arranging the test design from low dose to high dose, soaking the fresh corn leaves in prepared liquid medicine for 10 s, naturally drying the fresh corn leaves in the shade, then placing the dried corn leaves in a culture dish with filter paper and the diameter of 9 cm, inoculating regular healthy test insects, n=10, repeating the treatment for 3 times, and additionally arranging blank control.

[5] = test system: Phyllotreta striolata; assay: Phyllotreta striolata Controlling Activity Test; settings: 72 h, read-out: mortality against Phyllotreta striolata
Method: Phyllotreta striolata Controlling Activity Test:
Preparing liquid medicine according to the experimental design concentration, selecting fresh cabbage leaves, soaking the cabbage leaves for 15 s, taking out, airing, placing in a glass tube, connecting 20-25 heads of the Flea beetles adults with each tube, repeating the treatment for 3 times, investigating the death condition of the Phyllotreta striolata after 72 hours, and calculating and correcting the death rate.

[6] = test system: Sensitive Plutella xylostella; assay: Sensitive Plutella xylostella Controlling Activity Test
Description: Sensitive Plutella xylostella Controlling Activity Test:
Test targets: Plutella xylostella, 3 rd instar larvae, a sensitive strain raised indoors.
The test method comprises the following steps: selecting fresh cabbage leaves cultivated in a greenhouse, making the cabbage leaves into round with the diameter of 3 cm by using a puncher, putting the circular blade into prepared liquid medicine to be soaked for 10 s according to the sequence from low dose to high dose of experimental design, naturally drying the cabbage leaves in the shade, putting the soaked cabbage leaves into a culture dish with filter paper and the diameter of 9 cm, inoculating regular healthy test insects, n=10, repeating the treatment for 3 times, and additionally setting blank control.

[7] = read-out: mortality against Plutella xylostella

Compound | Mortality (%) [1] [%] | mortality at 0.2 ppm [1] [%] | mortality at 1 ppm [1] [%] | mortality at 5 ppm [1] [%] | mortality at 1.6 ppm [2] [%] | mortality at 1.56 ppm [2] [%] | mortality at 3.125 ppm [2] [%] | mortality at 6.25 ppm [2] [%] | mortality at 12.5 ppm [2] [%] | mortality at 3.25 ppm [3] [%] | mortality at 1.56 ppm [3] [%] | mortality at 3.125 ppm [3] [%] | mortality at 6.25 ppm [3] [%] | mortality at 1 ppm [4] [%] | mortality at 50 ppm [5] [%] | mortality at 0.333 ppm ([6]; in Brassica oleracea, 72 h) [%] | mortality at 1 ppm ([6]; in Brassica oleracea, 72 h) [%] | mortality at 1 ppm [6, 7] [%]
Cc1cc(C2=NOC(c3cc(Cl)c(F)c(Cl)c3)(C(F)(F)F)C2)ccc1C(=O)NC1CCS(=O)(=O)C1.I (stereo not drawn) [Compound I-1, 4-(5-(3,5-dichloro-4-fluorophenyl)-5-(trifluoromethyl)-4,5-dihydroisoxazol-3-yl)-N-(1,1-dioxotetrahydrothiophen-3-yl)-2-methylbenzamide] | 100 | 100 | 100 | 100 | > 90 | 94.3 | 100 | 100 | 100 | > 90 | 100 | 100 | 100 | > 90 | > 90 | 80 | 100 | > 90
Cc1cc(C2=NOC(c3cc(C(F)(F)F)cc(C(F)(F)F)c3)(C(F)(F)F)C2)ccc1C(=O)NC1CCS(=O)(=O)C1 (stereo not drawn) [Compound I-25, 4-(5-(3,5-bis(trifluoromethyl)phenyl)-5-(trifluoromethyl ester)-4,5-dihydroisoxazol-3-yl)-N-(1,1-dioxotetrahydrothiophen-3-yl)-2-methylbenzamide] | 100 | 100 | 100 | 100 | > 90 | 90.3 | 99.3 | 100 | 100 | > 90 | 100 | 100 | 100 | > 90 | > 90 | 65 | 100 | > 90
